Measured values: patent US11441195B2, “Energetic cancer stem cells (e-CSCs): a new hyper-metabolic and proliferative tumor cell phenotype, driven by mitochondrial energy” (LUNELLA BIOTECH, INC., priority 2018, dated 2022)

Experiments:
[1] = system: 3D tumor sphere formation; details: cited from earlier work
[2] = system: S-H cells (MCF7 3D-spheroids); test: S-H cell sub-population in MCF7 3D-spheroids after treatment (auto-fluorescence flow-cytometry); type: cell-based, human; details: for change in S-H cells: control to 100 nM, FIG. 8B/8C
Experimental: FIG. 8A is a bar graph showing mammosphere formation in MCF7 cells at various concentrations of DPI, and including Ribociclib at 100 nM. […] Most importantly, e-CSCs derived from 3D-spheroids are highly oxidative and can be effectively targeted with an OXPHOS inhibitor. Non-limiting examples of other OXPHOS inhibitors that may be used in the present approach include atovaquone, irinotecan, sorafenib, niclosamide, and berberine chloride.
Data were analyzed with FlowJo 10.1 software.
For 3D-spheroid suspensions, after 5 days of growth under low-attachment condition, the spheres were collected from six 225 cm2 flasks pre-coated with poly-HEMA and gently centrifuged at 100 g for 5 min. After centrifugation, 1 ml of 0.025% of trypsin was added to the “sphere-pellet” and incubated them at 37° C. for 5 minutes. Using a 25-gauge needle, the sphere-suspension was passed through the syringe 4 times. […] After creating these single-cell suspensions, they were subjected to standard flow-cytometry (using the SONY SH800 Cell Sorter) to isolate the auto-fluorescent cell sub-populations, as indicated above. Examples of flow-cytometry plots are included in the figures, and the gating strategy is shown.

[3] = system: MCF7 monolayers; details: after 130 hours of DPI treatment, FIG. 7C
Experimental: The data represents 100,000 cells after 120 hours of DPI treatment.
Vital mitochondrial staining: Cells were trypsinized and re-suspended into a 1×10^6 cell/ml solution in PBS. 10 nM of MitoTracker Deep-Red (Thermo Fisher Scientific) was added for 30 minutes at 37° C. before centrifugation and re-suspension in PBS Ca/Mg for FACS analysis (ATTUNE NxT) or Cell Sorting (SONY SH 800). All subsequent steps were performed in the dark. Data analysis was performed using FlowJo software.

[4] = system: MCF7 cells; details: cited from earlier work
[5] = system: M-H cells from MCF7 monolayers
[6] = system: MCF7 cells; test: Mammosphere formation assay (3D-spheroids); type: cell-based, human; details: for mammosphere formation in MCF7 cells: dose-dependent (0, 50 and 100 nM), FIG. 8A
Experimental: Mammosphere formation assay (for generating 3D-spheroids): A single-cell suspension was prepared using enzymatic, and manual disaggregation (25 gauge needle). […] After 5 days of culture, 3D-spheres >50 μm were counted using an eye piece (“graticule”), and the percentage of cells plated which formed spheres was calculated and is referred to as percent mammosphere formation, and was normalized to one (1=100% MSF). Mammosphere formation efficiency was analyzed in both the “low” and “high” sub-populations of auto-fluorescent cells, generated from either 2D-monolayers (M-L vs. M-H) or 3D-spheroids (S-L vs. S-H). All mammosphere experiments were performed in triplicate, at least 3 times independently.

[7] = breast cancer patients; cited from earlier work

## Cc1n[nH]c(C)c1Cc1sc2c(c1C(=O)N1C[C@H](O)CO1)c(=O)n(C)c(=O)n2CC(C)C [AR-C155858]
[1]
  3D tumor sphere formation: successfully blocked

## [Cl-].c1ccc2c(c1)[I+]c1ccccc1-2 [DPI, Diphenyleneiodonium chloride]
[2]; 100 nM
  depletion of S-H cells in anchorage-independent single live cells: ~60%
[2]
  change in S-H cells: decreasing
[3]
  mitochondrial mass (MitoTracker): increased
[4]
  mitochondrial function: selectively inhibits
  toxic side effects: without any toxic side effects
[4]; prior studies
  changes in cell viability or apoptosis: did not induce changes
  metabolic phenotype shift: shifted the cells towards a more glycolytic phenotype
[5]; 100 nM DPI, 2D-monolayer cultures, 5-day period
  increase in the number of M-H cells: ~7.5 fold
[5]; 5-day period (120 hours), concentration dependent, FIG. 7B
  percentage of M-H cells after treatment: increased
[6]
  3D-spheroid formation in MCF7 cells: inhibits
  mammosphere formation in MCF7 cells: inhibited
[6]; 100 nM
  3D-mammosphere formation: almost completely inhibited

## CN(C)C(=O)c1cc2cnc(Nc3ccc(N4CCNCC4)cn3)nc2n1C1CCCC1 [Ribociclib]
[2]; FIGS. 8A-C
  propagation of S-H cells: effectively inhibits
[2]
  change in S-H cells: decreasing
[7]
  most common side-effects: neutropenia, anemia and GI-distress
[6]
  mammosphere formation in MCF7 cells: inhibited

## CCCCC[C@H](CC(=O)NO)C(=O)N[C@H](C(=O)N1CCC[C@H]1CO)C(C)C [actinonin]
[1]
  3D tumor sphere formation: successfully blocked

## CC[C@H]1OC(=O)[C@H](C)[C@@H](O[C@H]2C[C@@](C)(OC)[C@@H](O)[C@H](C)O2)[C@H](C)[C@@H](O[C@@H]2O[C@H](C)C[C@H](N(C)C)[C@H]2O)[C@](C)(O)C[C@@H](C)CN(C)[C@H](C)[C@@H](O)[C@]1(C)O [azithromycin]
[1]
  3D tumor sphere formation: successfully blocked

## COc1nc2ccc(Br)cc2cc1[C@@H](c1ccccc1)[C@@](O)(CCN(C)C)c1cccc2ccccc12 [bedaquiline]
[1]
  3D tumor sphere formation: successfully blocked

## COc1ccc2cc3[n+](cc2c1OC)CCc1cc2c(cc1-3)OCO2 [berberine]
[1]
  3D tumor sphere formation: successfully blocked

## COc1ccc([C@@H]2CC(=O)c3c(O)cc(O[C@@H]4O[C@H](COC(=O)CC(C)(O)CC(=O)O)[C@@H](O)[C@H](O)[C@H]4O[C@@H]4O[C@@H](C)[C@H](O)[C@@H](O)[C@H]4O)cc3O2)cc1O (stereo partly shown) [brutieridin]
[1]
  3D tumor sphere formation: successfully blocked

## C[C@@H]1O[C@@H](O[C@@H]2[C@@H](Oc3cc(O)c4c(c3)O[C@H](c3ccc(O)cc3)CC4=O)O[C@@H](COC(=O)C[C@@](C)(O)CC(=O)O)[C@H](O)[C@H]2O)[C@@H](O)[C@H](O)[C@H]1O [melitidin]
[1]
  3D tumor sphere formation: successfully blocked

## CC[C@H]1/C=C/C=C/C[C@@H](C)[C@H](O)[C@@](C)(O)C(=O)[C@@H](C)[C@H](O)[C@@H](C)C(=O)[C@@H](C)[C@H](O)[C@@H](C)/C=C/C(=O)O[C@@H]2[C@H](C)[C@H](CC1)O[C@]1(CC[C@H](C)[C@H](C[C@@H](C)O)O1)[C@H]2C [oligomycin]
[1]
  3D tumor sphere formation: successfully blocked

## CN(C)c1cc(NC(=O)CNC(C)(C)C)c(O)c2c1C[C@H]1C[C@H]3[C@H](N(C)C)C(O)=C(C(N)=O)C(=O)[C@@]3(O)C(O)=C1C2=O [tigecycline]
[1]
  3D tumor sphere formation: successfully blocked
